Data reported in patent publication US20120277199A1, “Modulation of Gel Temperature of Poloxamer-Containing Formulations” (Otonomy, Inc., priority 2009, published 2012).
≈ marks a conversion by molar mass, not a printed value. Blank lines part the entries; values can stand above or below the molecule they belong to.

Experiments:
[1] = In vitro dissolution in snapwells, mean dissolution time (MDT); type: physicochemical
Description: Dissolution was performed at 37° C. in snapwells (6.5 mm diameter polycarbonate membrane with a pore size of 0.4 μm). […] Samples were taken every hour (0.1 mL withdrawn and replaced with warm buffer).
Dissolution is performed at 37° C. in snapwells (6.5 mm diameter polycarbonate membrane with a pore size of 0.4 μm), 0.2 mL of a gel formulation described herein is placed into snapwell and left to harden, then 0.5 mL buffer is placed into reservoir and shaken using a Labline orbit shaker at 70 rpm. Samples are taken every hour (0.1 mL withdrawn and replace with warm buffer). […] Pluronic concentration is analyzed at 624 nm using the cobalt thiocyanate method.
The mean dissolution time (MDT) is the sum of different periods of time the drug molecules stay in the matrix before release, divided by the total number of molecules and is optionally calculated by:
Dissolution was performed at 37° C. in snapwells (6.5 mm diameter polycarbonate membrane with a pore size of 0.4 μm), 0.2 mL of formulation was placed into snapwell and left to harden, then 0.5 mL of 0.9% saline was placed into reservoir and shaken using a Labline orbit shaker at 70 rpm. Samples were taken every hour (0.1 mL withdrawn and replace with warm buffer). Samples analyzed for dexamethasone and ciprofloxacin concentration by UV at 245 and 270 nm, respectively using a Evolution 160 UV/Vis spectrophotometer (Thermo Scientific). Quantitation performed against an external calibration standard.
Dissolution was performed at 37° C. in snapwells (6.5 mm diameter polycarbonate membrane with a pore size of 0.4 μm), 0.2 mL of gel was placed into snapwell and left to harden, 0.5 mL of 0.9% saline was placed into reservoir and shaken using a Labline orbit shaker at 70 rpm. Samples were taken every hour (All the saline withdrawn and replace with warm 0.9% saline with an osmolality of 290 mOsm). Samples were analyzed for Ciprofloxacin by HPLC.

[2] = Perilymph pharmacokinetics after intratympanic injection in guinea pigs; settings: guinea pig, in vivo
Description: Guinea pigs were administered 50 μl via intratympanic delivery and PK in the perilymph was measured as described herein.
Female guinea pigs (Charles River) weighing 200-300 g, of approximately 6-8 weeks of age are used (N=4 per group). Prior to any procedure, animals are anesthetized using a combination of xylazine (10 mg/kg), ketamine (40 mg/kg) and acepromazine (0.75 mg/kg) for up to an hour via the intramuscular route. If needed, an intraoperative booster is administered intraperitoneally representing one-tenth of the original dose. Intratympanic injection—Each animal is positioned so that the head is tilted at an angle to favor injection towards the round window niche. Briefly, under visualization with an operating microscope, 50 μl of formulations comprising 0 to 50% active agent and varying concentrations of P407 are administered to the animals. […] During the procedure and until recovery, animals are placed on a temperature controlled (40° C.) heating pad until consciousness is regained at which time they are returned to the vivarium. Perilymph sampling procedure—The skin behind the ear of anesthetized guinea pigs is shaved and disinfected with povidone-iodine. An incision is then made behind the ear, and muscles are carefully retracted from over the bulla. […]
Determination of active agent concentrations is performed using high pressure liquid chromatography (HPLC) combined with mass spectrometry detection (MS). […] The samples are analyzed by reversed phase HPLC (1100 series, Agilent) using an Atlantis dC18 column maintained at 40° C. The mobile phase is nebulized using heating nitrogen in a Z-spray source/interface and the ionized compounds detected using MS/MS (Tandem quadrupole mass spectrometer, Quattro Ultima, Waters). Peak heights of an active agent are determined using MassLynx software (Waters). […]
Pharmacokinetic parameters are calculated using conventional noncompartmental pharmacokinetic methods. The apparent clearance (CL app) is calculated as the ratio between the administered intratympanic dose and the exposure (AUC). […]

[3] = physchem; settings: aqueous with cosolvent or surfactant or cyclodextrin, thermodynamic from solid
Description: In addition, modifying the solubility of the active agent can also have an effect on the properties of the thermosensitive gel.
A formulation comprising 0.5% w/w SP600125 in 16% Poloxamer 407 was made by dispersing 5.3 mg of SP600125 (LC Labs) in 994.7 mg of a 16% P407 in 50 mM Tris buffer.

[4] = cited from earlier work
[5] = systemically administered (oral or intravenously); cited from earlier work
[6] = Stability to autoclaving (impurity profile, assay, pH, osmolality, appearance); type: physicochemical; settings: autoclaving at 250° F. for 30 minutes in P407
Description: Cold 16% P407 in 50 mM TRIS buffers-saline (pH 7.4 and osmolality of 280 mOsM) was placed in a open container, then ciprofloxacin free base or ciprofloxacin free base hydrate (3.5 moles) was sprinkled in while mixing. Ciprofloxacin suspension was mixed for not less than 10 minutes, then micronized dexamethasone was added slowly to the mixture while mixing. The homogenous suspension was then transferred to 3 mL vials and filled at different volumens (v1=4 g, v2, 3 g and v3 2 g). The glass vial were sealed with West stoppers (fluorotec coated) and Aluminum seals, followed by autoclaving at 250° F. for 30 minutes.
Weigh 58.8 g of the above buffer, chill down, then sprinkle while mixing 11.291 g of poloxamer 407 NF (BASF lot WPNF580C), mix until fully dissolved. Weigh 64.8 g of a the 16% P407 (above solution) into a 100 mL glass bottle containing a 35 mm stir bar then sprinkle 2.2915 g of ciprofloxacin hydrate (Neuland lot CHI071000). Mix for not less than 2 hours at a setting of 11 (IKA stir plate) minutes while cooling then fill 31 two mL vials with approximately 2 g of suspension, stopper them with 13 mm West stoppers and seal them with Al seal, autoclave for 30 minutes @ 250° C.

Structure (SMILES): O=C1c2ccccc2-c2n[nH]c3cccc1c23 [SP600125, anthra[1,9-cd]pyrazol-6(2H)-one]
solubility [3]: ~190 µg/mL (≈ 863 µM) | reported water solubility [4]: 11 µg/mL | LogD (7.4) ([4]; pH 7.4): 3.2

Structure (SMILES): O=P(O)(O)C(O)(Cn1ccnc1)P(=O)(O)O [Zoledronate]
amount reaching the perilymph in the inner ear and/or otic bone structure [5]: about 0.1 ng/day | in vitro mean dissolution time (MDT) ([1]; 16% P407 formulation, FIG. 6): 2 h

Structure (SMILES): CN(C)CCC=C1c2ccccc2CCc2ccccc21 [amitriptyline]
water solubility [4]: greater than 100 mg/mL

Structure (SMILES): Cc1cccc(CN2CCN(C(c3ccccc3)c3ccc(Cl)cc3)CC2)c1 (stereo not shown) [meclizine]
solubility in water [4]: insoluble in water

Structure (SMILES): O=P(O)(O)C(O)(Cc1cccnc1)P(=O)(O)O [rosidronate]
amount reaching the perilymph in the inner ear and/or otic bone structure [5]: about 0.6 ng/day

Results, then the molecule that gave them:

MDT ([1]; 17% Poloxamer 407 formulation): about 3 h | MDT ([1]; DSP aqueous solution, micronized DEX suspension in water (no poloxamer)): 0.3 h
Structure (SMILES): C[C@@H]1C[C@H]2[C@@H]3CCC4=CC(=O)C=C[C@]4(C)[C@@]3(F)[C@@H](O)C[C@]2(C)[C@@]1(O)C(=O)COP(=O)(O)O [DSP, dexamethasone sodium phosphate]

MDT ([1]; 17% Poloxamer 407 formulation): about 3 h | peak methylprednisolone levels in the perilymph [2]: 6.5 µg/mL
Structure (SMILES): C[C@H]1C[C@@H]2[C@H]([C@@H](O)C[C@@]3(C)[C@H]2CC[C@]3(O)C(=O)COC(=O)CCC(=O)[O-])[C@@]2(C)C=CC(=O)C=C12.[Na+] [MPS]

decrease of perilymph levels after peak [2]: decreased slowly over 10 days | peak methylprednisolone levels in the perilymph [2]: 19.2 µg/mL
Structure (SMILES): C[C@H]1C[C@@H]2[C@H]([C@@H](O)C[C@@]3(C)[C@H]2CC[C@]3(O)C(=O)CO)[C@@]2(C)C=CC(=O)C=C12 [MP]

change observed after autoclaving ([6]; hydrate): minimal growth or recrystallization
Structure (SMILES): O=C(O)c1cn(C2CC2)c2cc(N3CCNCC3)c(F)cc2c1=O [ciprofloxacin free base hydrate, ciprofloxacin hydrate]

change observed after autoclaving [6]: appreciable particle size increase
Structure (SMILES): O=C(O)c1cn(C2CC2)c2cc(N3CCNCC3)c(F)cc2c1=O [ciprofloxacin free base, ciprofloxacin]
